{"source": "the NIST ThermoML archive (doi:10.1021/je200963q)", "test": "wn = mass fraction of the nth substance listed", "conditions": "303.15 K, 101.3 kPa, Liquid, w1 = 0.08", "note": "± gives the expanded uncertainty stated by the source."}
{"smiles": "CCCCOCCOCCO", "note": "[3,6-dioxa-1-decanol] + O", "values": [{"measurement": "viscosity", "setting": "Capillary tube (Ostwald / Ubbelohde) method", "result": "1.069 ± 0.009", "unit": "mPa·s"}, {"measurement": "mass density", "result": "996.7 ± 0.4", "unit": "kg/m3"}]}
